Assay [1] concerns Puccinia recondita f. Sp. Tritici. Put plainly: Fungicidal activity against Puccinia recondita f. sp. tritici / wheat / leaf disc preventative (brown rust). In kind it is in vivo. To be noted: foliar, 200 ppm in the applied formulation, wheat leaf segments, preventative, compared to untreated control leaf disks, read-out: disease control. As to the method:
Leaf disks or leaf segments of various plant species are cut from plants grown in a greenhouse. The cut leaf disks or segments are placed in multiwell plates (24-well format) onto water agar. The leaf disks are sprayed with a test solution before (preventative) or after (curative) inoculation. Compounds to be tested are prepared as DMSO solutions (max. 10 mg/ml) which are diluted to the appropriate concentration with 0.025% Tween20 just before spraying. The inoculated leaf disks or segments are incubated under defined conditions (temperature, relative humidity, light, etc.) according to the respective test system. A single evaluation of disease level is carried out 3 to 14 days after inoculation, depending on the pathosystem. Percent disease control relative to the untreated check leaf disks or segments is then calculated.
Fungicidal Activity Against Puccinia recondita f. Sp. Tritici/Wheat/Leaf Disc Preventative (Brown Rust)
Wheat leaf segments cv. Kanzler were placed on agar in multiwell plates (24-well format) and sprayed with the formulated test compound diluted in water. The leaf disks were inoculated with a spore suspension of the fungus 1 day after application. The inoculated leaf segments were incubated at 19° C. and 75% relative humidity (rh) under a light regime of 12 hours light/12 hours darkness in a climate cabinet and the activity of a compound was assessed as percent disease control compared to untreated when an appropriate level of disease damage appears in untreated check leaf segments (7 to 9 days after application).
The following compounds at 200 ppm in the applied formulation give at least 80% disease control in this test when compared to untreated control leaf disks under the same conditions, which show extensive disease development.

For assay [2], the system named is Glomerella lagenarium (Colletotrichum lagenarium). Put plainly: Fungicidal activity against Glomerella lagenarium (Colletotrichum lagenarium) liquid culture / cucumber / preventative (anthracnose). In kind it is cell-based. To be noted: Colletotrichum orbiculare; 20 ppm in the applied formulation; liquid culture (PDB), growth inhibition measured photometrically after 3 to 4 days; compared to untreated control; read-out: disease control. The procedure, abridged: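 Photometric read-out of fungal growth after 2–7 days, expressed as percent antifungal activity versus untreated check. Cryo-stored conidia in PDB; compound at 20 ppm; dark, 24 °C, 96% RH.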

Each structure is given as a SMILES string.

Take `CCCCON(Cc1ccc(-c2noc(C(F)(F)F)n2)cc1)C(=O)COC` [Compound 1.602, N-butoxy-2-methoxy-N-[[4-[5-(trifluoromethyl)-1,2,4-oxadiazol-3-yl]phenyl]methyl]-acetamide]: the pest or weed control at 200 ppm in assay [1] was at least 80%. Also, the inhibition of growth at 20 ppm in assay [2] is at least 80%.

Consider `C=CCN(Cc1ccc(-c2noc(C(F)(F)F)n2)cc1)C(=O)CCl` [Compound 1.482, N-allyl-2-chloro-N-[[4-[5-(trifluoromethyl)-1,2,4-oxadiazol-3-yl]phenyl]methyl]-acetamide], for which the pest or weed control at 200 ppm in assay [1] was at least 80%. The inhibition of growth at 20 ppm in assay [2] is at least 80%.

Consider `Cc1cccc(C)c1C(=O)N(Cc1ccc(-c2noc(C(F)(F)F)n2)cc1)C1CC1` [Compound 1.105, N-cyclopropyl-2,6-dimethyl-N-[[4-[5-(trifluoromethyl)-1,2,4-oxadiazol-3-yl]phenyl]methyl]-benzamide], for which the pest or weed control at 200 ppm in assay [1] was at least 80%. Moreover, the inhibition of growth at 20 ppm in assay [2] is at least 80%.

Consider `CC(C)CC(=O)N(Cc1ccc(-c2noc(C(F)(F)F)n2)cc1)CC1CCCO1` (stereo not drawn) [Compound 1.423, 3-methyl-N-(tetrahydrofuran-2-ylmethyl)-N-[[4-[5-(trifluoromethyl)-1,2,4-oxadiazol-3-yl]phenyl]methyl]-butanamide], for which the pest or weed control at 200 ppm in assay [1] was at least 80%. In addition, the inhibition of growth at 20 ppm in assay [2] is at least 80%.

Turning to `CCC(COC)C(=O)N(Cc1ccc(-c2noc(C(F)(F)F)n2)cc1)CC1CCCO1` (stereo not drawn) [Compound 1.440, 2-(methoxymethyl)-N-(tetrahydrofuran-2-ylmethyl)-N-[[4-[5-(trifluoromethyl)-1,2,4-oxadiazol-3-yl]phenyl]methyl]-butanamide], the pest or weed control at 200 ppm in assay [1] is at least 80%. The inhibition of growth at 20 ppm in assay [2] was at least 80%.

With `CC#CCOC(=O)N(Cc1ccc(-c2noc(C(F)(F)F)n2)cc1)OC` [Compound 2.7, but-2-ynyl N-methoxy-N-[[4-[5-(trifluoromethyl)-1,2,4-oxadiazol-3-yl]phenyl]methyl]-carbamate], the pest or weed control at 200 ppm in assay [1] was at least 80%. Moreover, the inhibition of growth at 20 ppm in assay [2] is at least 80%.

As for `COc1ccccc1CC(=O)N(Cc1ccc(-c2noc(C(F)(F)F)n2)cc1)C1CC1` [Compound 1.113, N-cyclopropyl-2-(2-methoxyphenyl)-N-[[4-[5-(trifluoromethyl)-1,2,4-oxadiazol-3-yl]phenyl]methyl]-acetamide], the pest or weed control at 200 ppm in assay [1] was at least 80%. Also, the inhibition of growth at 20 ppm in assay [2] is at least 80%.

`O=C(C1CC1(F)F)N(Cc1ccc(-c2noc(C(F)(F)F)n2)cc1)CC1CCCO1` (stereo not drawn) [Compound 1.414, 2,2-difluoro-N-(tetrahydrofuran-2-ylmethyl)-N-[[4-[5-(trifluoromethyl)-1,2,4-oxadiazol-3-yl]phenyl]methyl]-cyclopropane-carboxamide]: the pest or weed control at 200 ppm in assay [1] was at least 80%. Besides, the inhibition of growth at 20 ppm in assay [2] is at least 80%.

Turning to `CON(Cc1ccc(-c2noc(C(F)(F)F)n2)cc1)C(=O)N1CCCO1` [Compound 3.66, N-methoxy-N-[[4-[5-(trifluoromethyl)-1,2,4-oxadiazol-3-yl]phenyl]methyl]-isoxazolidine-2-carboxamide], the pest or weed control at 200 ppm in assay [1] is at least 80%. In assay [2], the inhibition of growth at 20 ppm was at least 80%.

Turning to `CON(C(=O)C1=CCCC1)C(C)c1ccc(-c2noc(C(F)(F)F)n2)cc1` (stereo not drawn) [Compound 1.258, N-methoxy-N-[1-[4-[5-(trifluoromethyl)-1,2,4-oxadiazol-3-yl]phenyl]ethyl]-cyclopentene-1-carboxamide], the pest or weed control at 200 ppm in assay [1] is at least 80%. In assay [2], the inhibition of growth at 20 ppm was at least 80%.

Turning to `CCC(=O)N(Cc1ccc(-c2noc(C(F)(F)F)n2)cc1)OCc1ccc(Cl)cc1` [Compound 1.550, N-[(4-chlorophenyl)-methoxy]-N-[[4-[5-(trifluoromethyl)-1,2,4-oxadiazol-3-yl]phenyl]methyl]-propanamide], the pest or weed control at 200 ppm in assay [1] was at least 80%. For the same molecule, the inhibition of growth at 20 ppm in assay [2] is at least 80%.

With `O=C(c1ccccc1)N(Cc1ccc(-c2noc(C(F)(F)F)n2)cc1)CC1CC1` [Compound 1.247, N-(cyclopropylmethyl)-N-[[4-[5-(trifluoromethyl)-1,2,4-oxadiazol-3-yl]phenyl]methyl]-benzamide], the pest or weed control at 200 ppm in assay [1] was at least 80%. For the same molecule, in assay [2], the inhibition of growth at 20 ppm is at least 80%.

Turning to `C#CCN(Cc1ccc(-c2noc(C(F)(F)F)n2)cc1)C(=O)c1cc(Cl)ccc1O` [Compound 1.184, 5-chloro-2-hydroxy-N-prop-2-ynyl-N-[[4-(5-(trifluoromethyl)-1,2,4-oxadiazol-3-yl]phenyl]methyl]-benzamide], the pest or weed control at 200 ppm in assay [1] was at least 80%. Moreover, in assay [2], the inhibition of growth at 20 ppm is at least 80%.

Regarding `C#CCN(C)C(=O)N(CC)Cc1ccc(-c2noc(C(F)(F)F)n2)cc1` [Compound 3.96, 1-ethyl-3-methyl-3-prop-2-ynyl-1-[[4-[5-(trifluoromethyl)-1,2,4-oxadiazol-3-yl]phenyl]methyl]urea], the pest or weed control at 200 ppm in assay [1] was at least 80%. In addition, the inhibition of growth at 20 ppm in assay [2] is at least 80%.

As to `O=C(C1CC1(F)F)N(Cc1ccc(-c2noc(C(F)(F)F)n2)cc1)Cc1ccco1` (stereo not drawn) [Compound 1.464, 2,2-difluoro-N-(2-furylmethyl)-N-[[4-[5-(trifluoromethyl)-1,2,4-oxadiazol-3-yl]phenyl]methyl]-cyclopropane-carboxamide], in assay [1], the pest or weed control at 200 ppm was at least 80%. Moreover, in assay [2], the inhibition of growth at 20 ppm was at least 80%.

On to `CCC(C)C(=O)N(Cc1ccc(-c2noc(C(F)(F)F)n2)cc1)CC1CCCO1` (stereo not drawn) [Compound 1.437, 2-methyl-N-(tetrahydrofuran-2-ylmethyl)-N-[[4-[5-(trifluoromethyl)-1,2,4-oxadiazol-3-yl]phenyl]methyl]-butanamide], for which the pest or weed control at 200 ppm in assay [1] is at least 80%. Moreover, the inhibition of growth at 20 ppm in assay [2] is at least 80%.

`O=C(N(Cc1ccc(-c2noc(C(F)(F)F)n2)cc1)CC1CCCO1)C1(F)CC1` (stereo not drawn) [Compound 1.436, 1-fluoro-N-(tetrahydrofuran-2-ylmethyl)-N-[[4-[5-(trifluoromethyl)-1,2,4-oxadiazol-3-yl]phenyl]methyl]-cyclopropane-carboxamide]: the pest or weed control at 200 ppm in assay [1] was at least 80%. Also, the inhibition of growth at 20 ppm in assay [2] is at least 80%.

As for `CCCON(Cc1ccc(-c2noc(C(F)(F)F)n2)cc1)C(=O)C1CCCCO1` (stereo not drawn) [Compound 1.283, N-propoxy-N-[[4-[5-(trifluoromethyl)-1,2,4-oxadiazol-3-yl]phenyl]methyl]-tetrahydropyran-2-carboxamide], the pest or weed control at 200 ppm in assay [1] is at least 80%. For the same molecule, in assay [2], the inhibition of growth at 20 ppm is at least 80%.

`O=C(c1ccoc1)N(Cc1ccc(-c2noc(C(F)(F)F)n2)cc1)CC1CCCO1` (stereo not drawn) [Compound 1.449, N-(tetrahydrofuran-2-ylmethyl)-N-[[4-[5-(trifluoromethyl)-1,2,4-oxadiazol-3-yl]phenyl]methyl]-furan-3-carboxamide]: in assay [1], the pest or weed control at 200 ppm was at least 80%. Further, in assay [2], the inhibition of growth at 20 ppm is at least 80%.

For the molecule `C#CCCC(=O)N(Cc1ccc(-c2noc(C(F)(F)F)n2)cc1)CC1CC1` [Compound 1.205, N-(cyclopropylmethyl)-N-[[4-[5-(trifluoromethyl)-1,2,4-oxadiazol-3-yl]phenyl]methyl]pent-4-ynamide], in assay [1], the pest or weed control at 200 ppm was at least 80%. Besides, the inhibition of growth at 20 ppm in assay [2] is at least 80%.

With `CON(C(=O)C1CC1(F)F)C(C)c1ccc(-c2noc(C(F)(F)F)n2)cc1` (stereo not drawn) [Compound 1.251, 2,2-difluoro-N-methoxy-N-[1-[4-[5-(trifluoromethyl)-1,2,4-oxadiazol-3-yl]phenyl]ethyl]-cyclopropane-carboxamide], the pest or weed control at 200 ppm in assay [1] is at least 80%. The inhibition of growth at 20 ppm in assay [2] was at least 80%.

Take `CCCON(Cc1ccc(-c2noc(C(F)(F)F)n2)cc1)C(=O)COCCOC` [Compound 1.298, 2-(2-methoxyethoxy)-N-propoxy-N-[[4-[5-(trifluoromethyl)-1,2,4-oxadiazol-3-yl]phenyl]methyl]-acetamide]: the pest or weed control at 200 ppm in assay [1] is at least 80%. Besides, the inhibition of growth at 20 ppm in assay [2] was at least 80%.

For the molecule `COCCN(Cc1ccc(-c2noc(C(F)(F)F)n2)cc1)C(=O)C=CC(C)=O` [Compound 1.352, N-(2-methoxyethyl)-4-oxo-N-[[4-[5-(trifluoromethyl)-1,2,4-oxadiazol-3-yl]phenyl]methyl]-pent-2-enamide], the pest or weed control at 200 ppm in assay [1] is at least 80%. The inhibition of growth at 20 ppm in assay [2] is at least 80%.

For `O=C(C1CCC1)N(Cc1ccc(-c2noc(C(F)(F)F)n2)cc1)CC1CCCO1` (stereo not drawn) [Compound 1.424, N-(tetrahydrofuran-2-ylmethyl)-N-[[4-[5-(trifluoromethyl)-1,2,4-oxadiazol-3-yl]phenyl]methyl]-cyclobutane-carboxamide], the pest or weed control at 200 ppm in assay [1] was at least 80%. Moreover, the inhibition of growth at 20 ppm in assay [2] is at least 80%.
